Measured values: ChEMBL document CHEMBL5137114, “Discovery of IHMT-MST1-58 as a Novel, Potent, and Selective MST1 Inhibitor for the Treatment of Type 1/2 Diabetes” (J Med Chem, 2022)
The source made the active and inactive calls. No cut-off for these calls is given here.

Tests used:
[1] = Half life in Sprague-Dawley rat at 10 mg/kg, po measured up to 24 hrs by LC-MS/MS analysis; format: ADME, organism-based; settings: in vivo
[2] = system: Mus musculus; experiment: Antidiabetic activity in high fat diet-STZ-induced C57BL/6J mouse model of type 2 diabetes assessed as reduction in HbA1c level at 50 mg/kg, po qd (reference value: 8.6 %); format: functional; design: scale not given: the % may be the effect or the level left
[3] = Toxicity in multi low dose STZ-induced C57BL/6J mouse model of type 1 diabetes assessed as effect on pancreas morphology at 50 mg/kg, po qd in presence of metformin by H and E staining based analysis; format: organism-based; settings: in vivo
[4] = biological target: T1, Serine/threonine-protein kinase Nek3 (Homo sapiens) (UniProt P51956); experiment: Binding affinity to wild-type human full length NEK3 (M1 to R506 residues) expressed in mammalian expression system at 1 uM by Kinomescan method
T1 sequence (whole entry): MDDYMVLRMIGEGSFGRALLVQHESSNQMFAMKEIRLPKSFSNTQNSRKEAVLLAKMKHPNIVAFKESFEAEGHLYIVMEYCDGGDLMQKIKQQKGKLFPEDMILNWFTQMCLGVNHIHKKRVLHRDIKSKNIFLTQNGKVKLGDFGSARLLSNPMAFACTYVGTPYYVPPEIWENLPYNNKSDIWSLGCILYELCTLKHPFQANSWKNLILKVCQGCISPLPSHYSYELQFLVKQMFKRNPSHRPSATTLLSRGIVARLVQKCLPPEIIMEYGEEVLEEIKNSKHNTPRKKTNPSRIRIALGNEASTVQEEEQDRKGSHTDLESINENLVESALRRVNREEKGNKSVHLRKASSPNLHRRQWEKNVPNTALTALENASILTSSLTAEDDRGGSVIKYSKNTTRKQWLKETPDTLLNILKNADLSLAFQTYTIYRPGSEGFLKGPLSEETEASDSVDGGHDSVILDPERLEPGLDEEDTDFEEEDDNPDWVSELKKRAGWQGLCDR

[5] = Toxicity in multi low dose STZ-induced C57BL/6J mouse model of Type 1 diabetes assessed as effect on body weight at 50 mg/kg, po qd; format: organism-based; settings: in vivo
[6] = system: RIN-m5F; experiment: Protection against IL-1beta-induced cell damage in rat RIN-m5F cells assessed as increase in cell survival at 0.03 to 0.3 uM incubated for 48 hrs by Cell Titer-Glo assay; format: functional, cell-based; settings: dose 0.03-0.3 µM
[7] = system: Serine/threonine-protein kinase 4 (Rattus norvegicus); experiment: Inhibition of IL-1beta-stimulated MST1 phosphorylation in rat RIN-m5F cells incubated for 12 hrs by Western blotting analysis; settings: dose 0.1-10 µM, DDE = dose-dependent effect
[8] = Cmax in mouse Pancreas at 50 mg/kg, po measured up to 24 hrs by LC-MS/MS analysis; format: ADME, organism-based; design: dose 50 mg/kg, time < 24 hrs, route po
[9] = AUC (0 to t) in mouse plasma at 50 mg/kg, po measured up to 24 hrs by LC-MS/MS analysis; format: ADME, organism-based; design: dose 50 mg/kg, time < 24 hrs, route po
[10] = system: Serine/threonine-protein kinase 4 (Rattus norvegicus); experiment: Inhibition of INF-gamma-stimulated MST1 in rat INS1 cells assessed as reduction in MOB1 autophosphorylation incubated for 12 hrs by Western blotting analysis; settings: dose 0.1-10 µM, DDE = dose-dependent effect
[11] = system: Mus musculus; experiment: Antidiabetic activity against multi low dose STZ-induced C57BL/6J mouse model of type 1 diabetes assessed as increase in water consumption at 50 mg/kg, po administered upto 79 days in presence of metformin; format: functional, organism-based; settings: time <= 79.0 day
[12] = Half life in Beagle dog at 1 mg/kg, iv measured up to 12 hrs by LC-MS/MS analysis; format: ADME, organism-based, Canis lupus familiaris; settings: in vivo
[13] = AUC (0 to t) in Sprague-Dawley rat at 1 mg/kg, iv measured up to 12 hrs by LC-MS/MS analysis; format: ADME, organism-based; design: dose 1 mg/kg, time < 12 hrs, route iv; settings: in vivo
[14] = Half life in Beagle dog at 10 mg/kg, po measured up to 24 hrs by LC-MS/MS analysis; format: ADME, organism-based, Canis lupus familiaris; settings: in vivo
[15] = biological target: T1, Serine/threonine-protein kinase Nek3 (Homo sapiens); experiment: Inhibition of recombinant full length N-terminal GST -tagged human NEK3 expressed in baculovirus expression system using S2 as substrate incubated for 2 hrs by HTRF assay relative to control; settings: Sf9, concentration not given here
[16] = Half life in mouse at 1 mg/kg, iv measured up to 12 hrs by LC-MS/MS analysis; format: ADME, organism-based; settings: in vivo
[17] = biological target: T2, Serine/threonine-protein kinase 4 (Homo sapiens, UniProt Q13043); experiment: Binding affinity to wild-type human full length MST1 (M1 to F487 residues) expressed in bacterial expression system by Kinomescan method
T2 sequence (Q13043 whole entry): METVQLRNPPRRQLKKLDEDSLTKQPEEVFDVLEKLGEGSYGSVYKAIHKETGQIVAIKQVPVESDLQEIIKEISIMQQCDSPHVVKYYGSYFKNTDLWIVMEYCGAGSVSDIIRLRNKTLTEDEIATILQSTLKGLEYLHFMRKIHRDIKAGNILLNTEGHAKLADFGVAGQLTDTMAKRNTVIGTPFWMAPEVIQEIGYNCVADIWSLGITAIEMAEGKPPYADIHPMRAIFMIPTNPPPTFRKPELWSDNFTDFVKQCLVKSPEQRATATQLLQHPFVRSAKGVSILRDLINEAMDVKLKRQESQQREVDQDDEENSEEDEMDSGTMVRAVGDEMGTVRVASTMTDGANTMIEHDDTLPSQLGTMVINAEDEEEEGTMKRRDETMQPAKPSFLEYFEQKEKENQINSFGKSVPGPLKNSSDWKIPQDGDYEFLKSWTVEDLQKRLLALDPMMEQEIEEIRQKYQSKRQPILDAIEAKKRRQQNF

[18] = Cmax in mouse at 10 mg/kg, po measured up to 24 hrs by LC-MS/MS analysis; format: ADME, organism-based; design: dose 10 mg/kg, time < 24 hrs, route po; settings: in vivo
[19] = Oral bioavailability in Sprague-Dawley rat at 10 mg/kg measured up to 24 hrs by LC-MS/MS analysis; format: ADME, organism-based; settings: in vivo
[20] = Oral bioavailability in mouse at 10 mg/kg measured up to 24 hrs by LC-MS/MS analysis; format: ADME, organism-based; settings: in vivo
[21] = system: INS1; experiment: Protection against TNF-alpha-induced damage in rat INS1 cells assessed as increase in cell survival at 0.03 to 0.3 uM incubated for 48 hrs by Cell Titer-Glo assay; format: functional, cell-based; settings: dose 0.03-0.3 µM
[22] = system: Mus musculus; experiment: Antidiabetic activity against multi low dose STZ-induced C57BL/6J mouse model of type 1 diabetes assessed as food intake at 50 mg/kg, po administered for 1 to 2 days in presence of metformin (reference value: 4.5 g/day); format: functional; settings: time 1-2 day
[23] = AUC (0 to t) in Beagle dog at 1 mg/kg, iv measured up to 12 hrs by LC-MS/MS analysis; format: ADME, organism-based, Canis lupus familiaris; design: time < 12 hrs, dose 1 mg/kg, route iv; settings: in vivo
[24] = AUC (0 to t) in mouse Pancreas at 50 mg/kg, po measured up to 24 hrs by LC-MS/MS analysis; format: ADME, organism-based; design: time < 24 hrs, dose 50 mg/kg, route po
[25] = system: Serine/threonine-protein kinase 4 (Rattus norvegicus); experiment: Inhibition of INF-gamma-stimulated MST1 phosphorylation in rat INS1 cells incubated for 12 hrs by Western blotting analysis; settings: dose 0.1-10 µM, DDE = dose-dependent effect

Cc1ccccc1C1C(=O)N(C)c2cnc(Nc3ccc(S(N)(=O)=O)cc3)nc2N1C (stereo not given)
half-life [1]: 3.03 h
Activity [2]: 7.9%
Activity [3]: Non-Toxic
Activity [4]: Active
Activity [5]: Non-Toxic
Activity [6]: Active
inhibition [7]: Dde
Cmax [8]: 12200 ng/mL
AUC(0-t) at 24 h [9]: 13600 ng·h/mL
inhibition [10]: Dde
Activity [11]: Active
half-life [12]: 6.47 h
AUCt [13]: 2553 ng·h/mL
half-life [14]: 5.79 h
inhibition [15]: 0.85%
half-life [16]: 1.7 h
Kd [17]: 240 nM
Cmax [18]: 1920 ng/mL
F [19]: 73.3%
bioavailability [20]: 111%
Activity [21]: Active
Activity [22]: 5.4 g/day
AUC(0-t) at 12 h [23]: 764 ng·h/mL
AUC(0-t) at 24 h [24]: 51400 ng·h/mL
inhibition [25]: Dde
